From ChEMBL document CHEMBL1201862, “PubChem BioAssay data set” (2004) come the findings set out here.

Structures are written as SMILES. The source made the active and inactive calls. Rule as the data show it, for most assays here: actives have a measured EC50 and inactives only a lower limit.

A short description of assay [1]: Luminescence Cell-Based Dose Response HTS to Identify Inhibitors of 5'UTR Stem-Loop Driven Prion Protein mRNA Translation in H4 Neuroglioblastoma Cells. [Related pubchem assays: 1827 (Project Summary), 1813 (Primary HTS)]. Format: functional.
Assay [2] in a line: luciferase reporter signal suppression in cells – H4 neuroglioma cells, luminescence, dose response (AID 1990). Format: functional, cell-based. A general note: A reporter such as luciferase makes a cellular process visible.
A short description of assay [3]: alpha-synuclein stem-loop luciferase translation blockers – H4 neuroglioma cells, luminescence, confirmation (AID 1988). Format: functional, cell-based.
For assay [4], the system named is H9c2. The assay can be described thus: cells. Format: functional, cell-based. Conditions: Rattus norvegicus, H9c2, Myocardium.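 Also: confirmatory concentration-response retest of ultra-high-throughput screening hits for modulation of myocardial damage; cell death induced by hydrogen peroxide oxidative stress; compound pretreatment for 60 min then peroxide exposure for 2 h; potency is for protecting the cells against peroxide damage rather than for killing them.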
Assay [5] addresses T1, Heat shock factor protein 1 (Mus musculus, UniProt P38532).
T1 sequence (P38532 whole entry): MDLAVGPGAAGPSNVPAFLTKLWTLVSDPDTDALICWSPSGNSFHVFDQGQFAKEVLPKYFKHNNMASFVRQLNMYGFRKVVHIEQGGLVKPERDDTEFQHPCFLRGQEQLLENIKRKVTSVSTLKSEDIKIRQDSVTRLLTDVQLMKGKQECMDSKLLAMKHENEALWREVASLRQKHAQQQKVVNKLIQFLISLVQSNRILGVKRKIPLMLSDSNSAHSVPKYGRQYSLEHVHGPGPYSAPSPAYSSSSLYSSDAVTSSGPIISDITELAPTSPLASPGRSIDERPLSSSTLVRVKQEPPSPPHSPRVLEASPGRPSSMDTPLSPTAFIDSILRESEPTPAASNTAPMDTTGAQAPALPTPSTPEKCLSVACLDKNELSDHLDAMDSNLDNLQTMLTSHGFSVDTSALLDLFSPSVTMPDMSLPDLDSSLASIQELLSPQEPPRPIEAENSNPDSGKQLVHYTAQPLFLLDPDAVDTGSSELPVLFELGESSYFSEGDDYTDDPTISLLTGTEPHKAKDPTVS
Nature of the assay: enhancement of HSF1-driven luciferase signal – cell-based, NIH3T3, luminescence, dose retest, confirmation (AID 435004).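 Also: stress induced by proteasome inhibitor MG132 added 30 min after compound; luciferase reporter driven by HSF1 response element in NIH3T3 cells; actives raise luminescence as potentiators of the MG132 stress response.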 Format: functional.

Assay [6] deals with T1, Heat shock factor protein 1. Nature of the assay: decrease of HSF1-responsive luciferase luminescence – cell-based, NIH3T3, dose retest, confirmation (AID 2382).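 Also: NIH3T3 fibroblasts with HSF1-driven luciferase reporter stressed by proteasome inhibitor MG132; luminescence from HSF1-driven luciferase expression after 8 hours of MG132 stress.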 Format: functional.
A short description of assay [7]: NIH3T3 cell viability loss – ATP luminescence, mouse fibroblasts, counter-screen, dose response (AID 2010).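 Also: cells exposed to compound for about 90 hours before reading.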 Format: functional, cell-based. (The purpose of a counterscreen is to sort out artefacts and off-target activity.)
Assay [8] can be described thus: Trypanosoma cruzi growth suppression in host cells – NIH3T3 host cells, beta-gal luminescence, confirmation (AID 2044).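 Also: intracellular parasites grown in NIH/3T3 mouse fibroblasts as host cells; luminescent beta-galactosidase reporter signal from transgenic T. cruzi replicating inside host cells; inhibitors lower the luminescence signal.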 Format: functional, cell-based.
Assay [9] is described as follows: Luminescence Cell-Based Dose Response HTS to Identify Activators of Luciferase Translation or Activity in H4 […] Cells. [Related pubchem assays: 1829 (Project Summary), 1814 (Primary HTS)]. Format: functional.
Assay [10] addresses Paired box protein Pax-8 (Homo sapiens, UniProt Q06710). Nature of the assay: PAX8 transcriptional activity inhibition in RMG-I – RMG-I cells, luciferase, cherry-pick, dose response (AID 687027).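 Also: luciferase reporter driven by Pax8 target thyroperoxidase promoter measured by SteadyGlo luminescence.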 Format: functional, cell-based.
Assay [11] concerns the target Cytochrome P450 3A4 (Homo sapiens, UniProt P08684).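 Also: CYP3A4 tested as one member of a cytochrome P450 panel screen.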
Assay [12] has as its system Streptococcus. The assay can be described thus: GAS UMAA2166 growth inhibition – luminescence, BacTiterGlo, counter-screen for streptokinase expression inhibitor project, dose response (AID 1915).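 Also: potency for reduction of bacterial viability or growth.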 Format: functional, organism-based.
For assay [13], the system named is Streptococcus sp. 'group A'. Nature of the assay: Streptococcus pyogenes SK(-)GAS viability under kanamycin – luminescence, BacTiterGlo, confirmation, counter-screen for streptokinase expression inhibitor project, dose response (AID 1900). Format: functional, organism-based.
Assay [14] has as its system INS1. Nature of the assay: INS-1E survival protection against cytokine death – cell-based, luminescence, retest, dose response (AID 449756).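 Also: cell death triggered by IL-1 beta plus TNF-alpha plus IFN-gamma mixture; protective hits raise ATP signal compared with cytokine alone wells.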 Format: functional. The conditions noted are these: Rattus norvegicus.
The nature of assay [15]: Luminescence Cell-Based Dose Retest to Confirm Inhibitors of Cancer Stem Cells. [Related pubchem assays (depositor defined):AID2717, AID2721]. Format: functional, Homo sapiens. The conditions noted are these: Homo sapiens.

Chain of Paired box protein Pax-8 (Q06710 whole entry): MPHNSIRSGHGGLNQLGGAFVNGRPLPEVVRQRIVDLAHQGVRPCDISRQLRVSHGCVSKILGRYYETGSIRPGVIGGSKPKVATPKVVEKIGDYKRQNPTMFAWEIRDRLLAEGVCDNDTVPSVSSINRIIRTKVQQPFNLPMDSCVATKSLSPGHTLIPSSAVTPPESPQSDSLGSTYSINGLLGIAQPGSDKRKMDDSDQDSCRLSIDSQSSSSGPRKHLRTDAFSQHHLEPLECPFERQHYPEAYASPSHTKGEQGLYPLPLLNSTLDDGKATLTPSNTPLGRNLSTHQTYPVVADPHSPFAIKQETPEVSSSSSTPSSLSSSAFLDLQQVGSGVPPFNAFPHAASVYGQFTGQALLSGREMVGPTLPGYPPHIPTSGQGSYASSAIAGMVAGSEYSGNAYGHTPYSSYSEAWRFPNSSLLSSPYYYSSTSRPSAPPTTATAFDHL
Chain of Cytochrome P450 3A4 (P08684 whole entry): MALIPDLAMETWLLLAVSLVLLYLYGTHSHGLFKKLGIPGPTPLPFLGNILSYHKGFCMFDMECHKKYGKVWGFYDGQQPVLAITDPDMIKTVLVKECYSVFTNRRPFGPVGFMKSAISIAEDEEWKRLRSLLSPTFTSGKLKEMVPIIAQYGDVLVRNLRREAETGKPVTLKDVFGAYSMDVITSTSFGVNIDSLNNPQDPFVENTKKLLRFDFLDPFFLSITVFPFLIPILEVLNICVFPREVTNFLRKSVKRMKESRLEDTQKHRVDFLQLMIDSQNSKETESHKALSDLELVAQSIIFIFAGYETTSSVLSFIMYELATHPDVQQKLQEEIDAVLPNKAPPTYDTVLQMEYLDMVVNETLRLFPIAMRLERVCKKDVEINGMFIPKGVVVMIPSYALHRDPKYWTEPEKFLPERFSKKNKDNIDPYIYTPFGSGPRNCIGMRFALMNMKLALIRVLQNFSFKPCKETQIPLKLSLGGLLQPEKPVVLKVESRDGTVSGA

Broadly, the EC50 is the concentration that produces a half-maximal response. For `COc1cc2c(cc1OC)CN(C(=O)CNS(=O)(=O)c1ccc(C)c(C)c1)CC2`, the EC50 in assay [1], in [2] and in assay [3] was > 120 µM (not active) in each case.

One may read the IC50 as the midpoint of a concentration-inhibition curve. In the case of `COC(=O)c1ccccc1NC(=O)/C=C/c1cc(OC)c(OC)c(OC)c1`, in assay [4], the IC50 is 10.5 µM (active).

Regarding `CC(C)(C)OC(=O)C[C@@H]1C/C=C\C[C@@H](CC(=O)N[C@@H](CO)Cc2ccccc2)C(=O)NC[C@@H](c2ccccc2)OC1=O`, the IC50 in [4] was 11.1 µM (active).

Take `Cc1ccc(NC(=O)c2[nH]cnc2C(=O)NCCCCCCNC(=O)c2nc[nH]c2C(=O)Nc2ccc(C)cc2)cc1`: the IC50 in assay [4] is > 79 µM (inactive).

As to `Cc1cccc(-[n+]2c(C)cc(C)c3c(=O)[nH]c(=O)[nH]c32)c1`, the EC50 in [5] is > 260 µM (inactive).

`Cc1ccccc1NC(S)=NNC(=O)c1csc2c1CCC(C)C2` (stereo unspecified): the EC50 in assay [6] is < 0.16 µM (active).

Consider `CCOc1ccc(S(=O)(=O)NN=C(S)Nc2ccc(Br)cc2)cc1`, for which the EC50 in [5] is > 260 µM (inactive).

Consider `COc1cccc(CC2(CO)CCN(S(=O)(=O)c3ccc(OC)cc3OC)CC2)c1`, for which the EC50 in assay [6] is listed as > 195 µM (not active).

Regarding `O=C(COC(=O)CCc1nc(O)c2ccccc2n1)NC(c1ccccc1)c1ccccc1`, in assay [4], the IC50 is > 79 µM (inactive).

Consider `CCOc1ccc(S(=O)(=O)c2c(C(=O)c3ccccc3)cnc3cc4c(cc23)OCCO4)cc1`, for which the values for the EC50 in assay [7], in assay [8] and in assay [5] were 17.8 µM (active), 2.43 µM (active) and > 260 µM (inactive), respectively.

In the case of `CCOc1ccc(S(=O)(=O)N2CCC(C(=O)N3CCOCC3)CC2)cc1C`, the results for the EC50 in assay [1], in [2] and in assay [3] were > 120 µM (not active), 16.4 µM (active) and > 120 µM (not active), respectively.

As to `O=C(COC(=O)c1cccs1)c1ccc2c(c1)OCCO2`, the EC50 is 0.213 µM (active) in assay [6] and < 0.1 µM (active) in assay [9].

The term AC50 denotes the concentration at which the activity in the assay is half-maximal. As for `O=C(c1ccco1)N1N=C(c2ccc(Br)cc2)CC1(O)C(F)(F)F` (stereo unspecified), in [10], the concentration at half-maximal activity (AC50) was 27.1 µM (active).

`CCc1ccccc1N(CC(=O)NCc1ccco1)C(=O)CCC(=O)Nc1ccccn1`: the EC50 in assay [6] was 35.8 µM (active).

On to `C/C(CCc1oc2c(Br)cc(Br)cc2c1-c1ccc(C)o1)=N\O`, for which the EC50 in assay [5] is > 260 µM (inactive).

On to `CCN(CC)C(=O)c1[nH]cnc1C(=O)NCC(=O)OCc1ccccc1`, for which the IC50 in assay [4] was 6.99 µM (active).

As for `O=C(Nc1ccc2c(c1)nc(O)c1ccccc12)C(F)(F)F`, the IC50 in assay [4] is > 79 µM (inactive).

Regarding `O=C(Cn1[nH]c(=O)c2ccccc2c1=O)N1CC=C(c2ccccc2)CC1`, the IC50 in assay [4] is > 79 µM (inactive).

Consider `CC1CCN(C(c2ccc(N(C)C)cc2)c2nnnn2Cc2ccccc2)CC1` (stereo unspecified), for which the EC50 in assay [5] was > 260 µM (inactive).

Turning to `COc1cc2c3c(c1OC)C1(C=CC(=NO)C=C1)CC3N(C(C)=O)CC2` (stereo unspecified), the EC50 in assay [1], in [2] and in [3] was > 120 µM (not active) each time.

With `O=C(O)C1CCCCC1C(=O)Nc1cccc(C(=O)N2CCCCC2)c1` (stereo unspecified), the EC50 in assay [6] is listed as > 195 µM (not active).

For `Cc1ccc(NC(=O)CN(C)C(S)=NC2CC2)cc1`, the EC50 in assay [1], in assay [2] and in assay [3] was > 120 µM (not active) in each case.

As to `N#C/C(=C/c1ccc(Br)o1)C(N)=O`, in [6], the EC50 was > 195 µM (not active).

For `COc1ccc(OCC(O)Cn2c(Nc3cccc(C)c3)nc3c2c(=O)n(C)c(=O)n3C)cc1` (stereo unspecified), the IC50 in [4] is 10.1 µM (active).

For `O=C(NCCN1CCN(C(=O)c2ccc(Br)cc2)CC1)c1ccc(Br)cc1`, the EC50 in assay [5] is > 260 µM (inactive).

For the compound `Cc1cccc(OCC(=O)Nc2ccc3c(c2)nc(CCN2CCCCC2)n3C)c1`, the EC50 in assay [5] is > 260 µM (inactive).

`NS(=O)(=O)c1ccc(NC(=O)CN2C(=O)CCC2=O)cc1`: the EC50 in assay [5] was > 260 µM (inactive).

In the case of `CS(=O)(=O)c1nc(-c2ccccc2)cc(-c2ccccc2)c1C#N`, the AC50 in assay [11] is 22.4 µM (inconclusive). In assay [5], the EC50 is 16.7 µM (active).

For `COc1ccc(Nc2nc(C(=O)N3CCc4cc(OC)c(OC)cc4C3)cs2)cc1`, in assay [4], the IC50 is > 79 µM (inactive).

For the compound `COc1ccc(-c2cc(C(F)(F)F)n3nc(C(=O)N4CCN(C(=O)c5ccco5)CC4)cc3n2)cc1`, in [4], the IC50 was 13 µM (active).

Take `COc1ccc(/C=N/NC(=O)c2ccncc2)cc1COc1ccc(NC(C)=O)cc1`: the EC50 in [1], in [2] and in assay [3] was > 120 µM (not active) each time.

Take `CC(C)NC(=O)CN(C(=O)CCC(=O)Nc1nccs1)c1ccc2c(c1)OCO2`: the EC50 in assay [5] is > 260 µM (inactive).

With `CC(C)OCCCNC(=O)c1cccc(NC(=O)c2ccccc2)c1`, the AC50 in [10] was 41.6 µM (active).

Regarding `CC(=O)NCc1ccc(-c2csc(NC(=O)CCc3nc(O)c4ccccc4n3)n2)s1`, the IC50 in assay [4] is > 79 µM (inactive).

`Cn1c(C[S+]([O-])Cc2c(Cl)cccc2Cl)nnc1SCc1ccc(Cl)cc1` (stereo unspecified): the values for the EC50 in assay [1], in assay [2] and in [3] were > 120 µM (not active), > 120 µM (not active) and 13.8 µM (active), respectively.

As for `CC1CN(C(=O)C(C)N2C(=O)c3ccccc3C2=O)CC(C)O1` (stereo unspecified), in assay [6], the EC50 is 33.4 µM (active).

Consider `O=C(Nc1cnn(Cc2ccc(F)cc2)c1)c1cc(-c2ccco2)on1`, for which the EC50 in assay [6] was > 195 µM (not active).

With `O=C(CN1CCN(c2ccccn2)CC1)Nc1ccc([N+](=O)[O-])cc1C(=O)Nc1ccccc1F`, the IC50 in [4] was > 79 µM (inactive).

As to `Cc1ccc(C)c(OCCn2cc(/C=C(\C#N)C(=O)NCc3ccco3)c3ccccc32)c1`, the EC50 in assay [1] is 17.1 µM (active); in assay [2], > 120 µM (not active); in [3], 25.1 µM (active).

Consider `COc1ccc2c(c1)-c1c(sn(-c3ccccc3)c1=S)C(C)(C)N2`, for which the EC50 in assay [5] was > 260 µM (inactive).

For `CC(C)(C)OC(=O)C[C@H]1C/C=C\C[C@H](CC(=O)N[C@H](CO)Cc2ccccc2)C(=O)N[C@H](Cc2ccccc2)COC1=O`, the IC50 in assay [4] was > 79 µM (inactive).

With `C[C@@H]1CCCCO[C@H](CN(C)CC2CCCCC2)[C@H](C)CN([C@H](C)CO)C(=O)c2cc(NS(=O)(=O)c3ccc(Cl)cc3)ccc2O1`, the concentration at half-maximal activity (AC50) in [10] was 5.21 µM (active).

Turning to `Cc1ccc(OCC(=O)Nc2nc(-c3ccccn3)cs2)c(C)c1`, the EC50 in [12] is 4.62 µM (active); in assay [13], 1.08 µM (active). Also, the IC50 in assay [4] was > 79 µM (inactive).

Take `CC(C)(C)c1ccc(/C=N/N2C(=O)CSC2=S)cc1`: the EC50 in assay [6] was 44.1 µM (active).

Consider `c1ccc(N2CCOCC2)c(Nc2nc3ccccc3n3cnnc23)c1`, for which, in assay [4], the IC50 is > 79 µM (inactive).

As to `CSCCC(c1nnnn1-c1ccc2c(c1)OCCO2)N1CCC(n2c(O)nc3ccccc32)CC1` (stereo unspecified), the concentration at half-maximal activity (AC50) in assay [10] was 2.14 µM (active).

Turning to `CC(=O)c1ccc(OCC(O)CN2CCN(Cc3ccc4c(c3)OCO4)CC2)cc1` (stereo unspecified), the EC50 in assay [6] is > 195 µM (not active).

On to `CN(CC(=O)Nc1cccc(F)c1)C(=O)CCc1nc(O)c2ccccc2n1`, for which, in [4], the IC50 was > 79 µM (inactive).

As to `CCCCNC(=O)c1ccc(Cn2c(=S)[nH]c3c([nH]c4ccc(OC)cc43)c2=O)cc1`, the AC50 in [14] is 5.01 µM (active); in assay [15] it was 0.687 µM (active). For the same compound, the EC50 in assay [6] was 3.02 µM (active).
